# Test results reported in patent US20240261271A1, “APPLICATION OF HYDRONIDONE IN PREPARATION OF DRUG FOR TREATING OR PREVENTING CHRONIC HEPATITIS B WITH LIVER FIBROSIS” (priority 2021, published 2024).
# “And” between values parts separate entries of the source, which are not always exact repeats. Equal entries are not always repeated.
# Test system: chronic hepatitis B with hepatic fibrosis
# Assay: Phase II clinical study: hepatic fibrosis Ishak score by liver biopsy, before and after 52 weeks of treatment on entecavir basic treatment
# Format: in vivo, human
# Settings: for Rate difference (C-D) % and 95% CI, Ishak score decreased by ≥1: 180 mg group minus 270 mg group; for Hepatic fibrosis Ishak score, Mean (SD) / Hepatic fibrosis Ishak score, Median / Ishak score 0 point, n(%) / Ishak score 1 point, n(%) / Ishak score 2 points, n(%) / Ishak score 3 points, n(%) / Ishak score 4 points, n(%) / Ishak score 5 points, n(%) / Ishak score 6 points, n(%) / Progressive Ishak score (increases by ≥1 compared with the baseline) / Reversed Ishak score (decreases by ≥1 point compared with the baseline) / Stable Ishak score (unchanged compared with the baseline): 52 weeks of treatment
# Protocol: This is a randomized, double-blind, placebo-controlled, multicenter, and dose-finding phase II clinical study with foundational treatment. In the clinical trial, three different dose test groups and a placebo control group were set on the basis of the entecavir capsule antiviral treatment, and the planned sample amount of each group was 60 cases, totaling 240 cases. The three dose test groups were 180 mg group, 270 mg group, and 360 mg group, respectively. […]
# [1] = 180 mg group, FAS, 52 weeks of treatment vs baseline, all subjects
# [2] = 180 mg group, FAS, all subjects
# [3] = 180 mg group, FAS, baseline Ishak score ≥3
# [4] = 180 mg group, FAS, screening period-follow-up 15 (52 weeks), baseline Ishak score ≥3
# [5] = 180 mg group, PPS, 52 weeks of treatment vs baseline, all subjects
# [6] = 180 mg group, PPS, all subjects
# [7] = 180 mg group, PPS, baseline Ishak score ≥3
# [8] = 180 mg group, PPS, screening period-follow-up 15 (52 weeks), baseline Ishak score ≥3
# [9] = 270 mg group, FAS, 52 weeks of treatment vs baseline, all subjects
# [10] = 270 mg group, FAS, all subjects
# [11] = 270 mg group, FAS, baseline Ishak score ≥3
# [12] = 270 mg group, FAS, screening period-follow-up 15 (52 weeks), baseline Ishak score ≥3
# [13] = 270 mg group, PPS, 52 weeks of treatment vs baseline, all subjects
# [14] = 270 mg group, PPS, all subjects
# [15] = 270 mg group, PPS, baseline Ishak score ≥3
compound,measurement,setting,value
Cc1ccc(=O)n(-c2ccc(O)cc2)c1 [hydronidone],"Rate difference (C-D) % and 95% CI, Ishak score decreased by ≥1","FAS, 52 weeks, all subjects","−15.62(−35.03, 5.65) %"
same,"Rate difference (C-D) % and 95% CI, Ishak score decreased by ≥1","FAS, 52 weeks, baseline Ishak score ≥3","−10.12(−34.40, 15.62) %"
same,"Rate difference (C-D) % and 95% CI, Ishak score decreased by ≥1","PPS, 52 weeks, all subjects","−18.49(−38.82, 4.38) %"
same,"Rate difference (C-D) % and 95% CI, Ishak score decreased by ≥1","PPS, 52 weeks, baseline Ishak score ≥3","−12.91(−37.46, 13.45) %"
same,"Ishak score decreased by <1, n(%)",[1],25(59.52) n(%)
same,"Ishak score decreased by ≥1, n(%)",[1],17 (40.48%) n(%) and 17(40.48) n(%)
same,"Hepatic fibrosis Ishak score, Mean (SD)",[2],2.71(1.88)
same,"Hepatic fibrosis Ishak score, Median",[2],2.00
same,"Ishak score 0 point, n(%)",[2],3(7.14) n(%)
same,"Ishak score 1 point, n(%)",[2],12(28.57) n(%)
same,"Ishak score 2 points, n(%)",[2],8(19.05) n(%)
same,"Ishak score 3 points, n(%)",[2],4(9.52) n(%)
same,"Ishak score 4 points, n(%)",[2],5(11.90) n(%)
same,"Ishak score 5 points, n(%)",[2],6(14.29) n(%)
same,"Ishak score 6 points, n(%)",[2],4(9.52) n(%)
same,Progressive Ishak score (increases by ≥1 compared with the baseline),[2],7 (16.67%) n(%) and 7(16.67) n(%)
same,Reversed Ishak score (decreases by ≥1 point compared with the baseline),[2],17(40.48) n(%)
same,Stable Ishak score (unchanged compared with the baseline),[2],18 (42.86%) n(%) and 18(42.86) n(%)
same,"Ishak score 0 point, n(%)",[3],1(4.17) n(%)
same,"Ishak score 1 point, n(%)",[3],4(16.67) n(%)
same,"Ishak score 2 points, n(%)",[3],1(4.17) n(%)
same,"Ishak score 3 points, n(%)",[3],3(12.50) n(%)
same,"Ishak score 4 points, n(%)",[3],5(20.83) n(%)
same,"Ishak score 5 points, n(%)",[3],6(25.00) n(%)
same,"Ishak score 6 points, n(%)",[3],4(16.67) n(%)
same,"Ishak score change, Baseline-52 weeks of treatment, Mean (SD)",[2],0.43(1.25)
same,"Ishak score change, Baseline-52 weeks of treatment, Median",[2],0.00
same,"Ishak score decreased by <1, n(%)",[4],11(45.83) n(%)
same,"Ishak score decreased by ≥1, n(%)",[4],13(54.17) n(%)
same,"Ishak score decreased by <1, n(%)",[5],19(52.78) n(%)
same,"Ishak score decreased by ≥1, n(%)",[5],17 (47.22%) n(%) and 17(47.22) n(%)
same,"Hepatic fibrosis Ishak score, Mean (SD)",[6],2.67(1.88)
same,"Hepatic fibrosis Ishak score, Median",[6],2.00
same,"Ishak score 0 point, n(%)",[6],3(8.33) n(%)
same,"Ishak score 1 point, n(%)",[6],11(30.56) n(%)
same,"Ishak score 2 points, n(%)",[6],5(13.89) n(%)
same,"Ishak score 3 points, n(%)",[6],4(11.11) n(%)
same,"Ishak score 4 points, n(%)",[6],5(13.89) n(%)
same,"Ishak score 5 points, n(%)",[6],5(13.89) n(%)
same,"Ishak score 6 points, n(%)",[6],3(8.33) n(%)
same,Progressive Ishak score (increases by ≥1 compared with the baseline),[6],7 (19.44%) n(%) and 7(19.44) n(%)
same,Reversed Ishak score (decreases by ≥1 point compared with the baseline),[6],17(47.22) n(%)
same,Stable Ishak score (unchanged compared with the baseline),[6],12 (33.33%) n(%) and 12(33.33) n(%)
same,"Ishak score 0 point, n(%)",[7],1(4.55) n(%)
same,"Ishak score 1 point, n(%)",[7],4(18.18) n(%)
same,"Ishak score 2 points, n(%)",[7],1(4.55) n(%)
same,"Ishak score 3 points, n(%)",[7],3(13.64) n(%)
same,"Ishak score 4 points, n(%)",[7],5(22.73) n(%)
same,"Ishak score 5 points, n(%)",[7],5(22.73) n(%)
same,"Ishak score 6 points, n(%)",[7],3(13.64) n(%)
same,"Ishak score change, Baseline-52 weeks of treatment, Mean (SD)",[6],0.50(1.34)
same,"Ishak score change, Baseline-52 weeks of treatment, Median",[6],0.00
same,"Ishak score decreased by <1, n(%)",[8],9(40.91) n(%)
same,"Ishak score decreased by ≥1, n(%)",[8],13(59.09) n(%)
same,"Ishak score decreased by ≥1, n(%)","270 mg group + 360 mg group, FAS, 52 weeks, baseline Ishak score = 6 (cirrhosis)",9(90.00) n(%)
same,"Ishak score decreased by ≥1, n(%)","270 mg group + 360 mg group, FAS, 52 weeks, baseline Ishak score ≥3 (significant fibrosis)",35(61.40) n(%)
same,"Ishak score decreased by ≥1, n(%)","270 mg group + 360 mg group, FAS, 52 weeks, baseline Ishak score ≥4 (progressive fibrosis)",22(64.71) n(%)
same,"Ishak score decreased by ≥1, n(%)","270 mg group + 360 mg group, FAS, 52 weeks, baseline Ishak score ≥5 (early cirrhosis)",17(65.38) n(%)
same,"Ishak score decreased by ≥1, n(%)","270 mg group + 360 mg group, PPS, 52 weeks, baseline Ishak score = 6 (cirrhosis)",9(90.00) n(%)
same,"Ishak score decreased by ≥1, n(%)","270 mg group + 360 mg group, PPS, 52 weeks, baseline Ishak score ≥3 (significant fibrosis)",35(70.00) n(%)
same,"Ishak score decreased by ≥1, n(%)","270 mg group + 360 mg group, PPS, 52 weeks, baseline Ishak score ≥4 (progressive fibrosis)",22(70.97) n(%)
same,"Ishak score decreased by ≥1, n(%)","270 mg group + 360 mg group, PPS, 52 weeks, baseline Ishak score ≥5 (early cirrhosis)",17(70.83) n(%)
same,"Ishak score decreased by <1, n(%)",[9],18(43.90) n(%)
same,"Ishak score decreased by ≥1, n(%)",[9],23 (56.10%) n(%) and 23(56.10) n(%)
same,"Hepatic fibrosis Ishak score, Mean (SD)",[10],2.64(1.74)
same,"Hepatic fibrosis Ishak score, Median",[10],2.00
same,"Ishak score 0 point, n(%)",[10],2(5.13) n(%)
same,"Ishak score 1 point, n(%)",[10],12(30.77) n(%)
same,"Ishak score 2 points, n(%)",[10],7(17.95) n(%)
same,"Ishak score 3 points, n(%)",[10],5(12.82) n(%)
same,"Ishak score 4 points, n(%)",[10],5(12.82) n(%)
same,"Ishak score 5 points, n(%)",[10],6(15.38) n(%)
same,"Ishak score 6 points, n(%)",[10],2(5.13) n(%)
same,Progressive Ishak score (increases by ≥1 compared with the baseline),[10],4 (9.76%) n(%) and 4(9.76) n(%)
same,Reversed Ishak score (decreases by ≥1 point compared with the baseline),[10],23(56.10) n(%)
same,Stable Ishak score (unchanged compared with the baseline),[10],14 (34.15%) n(%) and 14(34.15) n(%)
same,"Ishak score 0 point, n(%)",[11],2(7.14) n(%)
same,"Ishak score 1 point, n(%)",[11],4(14.29) n(%)
same,"Ishak score 2 points, n(%)",[11],4(14.29) n(%)
same,"Ishak score 3 points, n(%)",[11],5(17.86) n(%)
same,"Ishak score 4 points, n(%)",[11],5(17.86) n(%)
same,"Ishak score 5 points, n(%)",[11],6(21.43) n(%)
same,"Ishak score 6 points, n(%)",[11],2(7.14) n(%)
same,"Ishak score change, Baseline-52 weeks of treatment, Mean (SD)",[10],0.78(1.11)
same,"Ishak score change, Baseline-52 weeks of treatment, Median",[10],1.00
same,"Ishak score decreased by <1, n(%)",[12],10(35.71) n(%)
same,"Ishak score decreased by ≥1, n(%)",[12],18(64.29) n(%)
same,"Ishak score decreased by <1, n(%)",[13],12(34.29) n(%)
same,"Ishak score decreased by ≥1, n(%)",[13],23 (65.71%) n(%) and 23(65.71) n(%)
same,"Hepatic fibrosis Ishak score, Mean (SD)",[14],2.60(1.77)
same,"Hepatic fibrosis Ishak score, Median",[14],2.00
same,"Ishak score 0 point, n(%)",[14],2(5.71) n(%)
same,"Ishak score 1 point, n(%)",[14],11(31.43) n(%)
same,"Ishak score 2 points, n(%)",[14],7(20.00) n(%)
same,"Ishak score 3 points, n(%)",[14],3(8.57) n(%)
same,"Ishak score 4 points, n(%)",[14],5(14.29) n(%)
same,"Ishak score 5 points, n(%)",[14],5(14.29) n(%)
same,"Ishak score 6 points, n(%)",[14],2(5.71) n(%)
same,Progressive Ishak score (increases by ≥1 compared with the baseline),[14],4 (11.43%) n(%) and 4(11.43) n(%)
same,Reversed Ishak score (decreases by ≥1 point compared with the baseline),[14],23(65.71) n(%)
same,Stable Ishak score (unchanged compared with the baseline),[14],8 (22.86%) n(%) and 8(22.86) n(%)
same,"Ishak score 0 point, n(%)",[15],2(8.00) n(%)
same,"Ishak score 1 point, n(%)",[15],4(16.00) n(%)
same,"Ishak score 2 points, n(%)",[15],4(16.00) n(%)
same,"Ishak score 3 points, n(%)",[15],3(12.00) n(%)
